Results: the METLIN SMRT retention time set (Domingo-Almenara et al. 2019)

Assay: gradient 5% acetonitrile 3 min, to 50% in 2 min, to 85% in 15 min, held 3 min, 100 µL/min
Conditions: column: Zorbax Extend-C18 2.1 x 50 mm; eluents: water / acetonitrile, 0.1% formic acid
How it was run: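 Over 3 months, pure standards in mixtures of ~100 molecules were run by HPLC coupled to a quadrupole time-of-flight mass spectrometer in positive and negative ionization mode. The column was a Zorbax Extend-C18 (2.1 × 50 mm, 1.8 μm) at 100 μL/min, eluted with water and acetonitrile each holding 0.1% formic acid, with 40 μL dead and 900 μL dwell volumes. Retention time was determined from adduct peaks chosen by software and checked manually.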

Row | SMILES | RP-LC retention time
1 | CN(CCc1noc(COc2ccccc2)n1)C(=O)Nc1ccccc1C(F)(F)F | 953 s
2 | CC(C)C(=O)N1CCc2ccc(NC(=O)c3ccc(Cl)c(Cl)c3)cc2C1 | 901 s
3 | Cc1ccc(OCC(=O)Nc2ccc3c(c2)Sc2ncccc2C(=O)N3C)cc1 | 866 s
4 | CCOc1ccc(N2CC(c3nc4ccccc4n3CCN3CCOCC3)CC2=O)cc1 (stereo not given) | 618 s
5 | Cc1nnc(NC(=O)Cn2cccn2)s1 | 562 s
6 | CCOC(=O)c1[nH]c(C)c(C(=O)N2CCC(CC(=O)NC3CCCCC3)CC2)c1C | 719 s
7 | CCc1onc(C)c1C1CCCN1C(=O)Nc1ccc(C(=O)OC)cc1 (stereo not given) | 806 s
8 | O=C(Cn1cccc1-c1nnc(C2CC2)o1)NCc1ccccc1Cl | 815 s
9 | CCCc1ccc(S(=O)(=O)N2CCCC2c2nc(-c3cccc(F)c3)no2)cc1 (stereo not given) | 1270 s
10 | Cc1ccn2c(NC(=O)COc3ccc(Cl)cc3)c(-c3ccccc3)nc2c1 | 714 s
11 | COc1cc(OC)cc(-c2nc(-c3cn(Cc4ccccc4)nn3)no2)c1 | 1000 s
12 | O=C(Cc1ccc(NC(=O)CSCc2ccccc2)cc1)NCC(F)(F)F | 801 s
13 | O=C(NCc1ccccn1)c1ccc(-c2nc3cccnc3n(C3CCCC3)c2=O)cc1 | 778 s
14 | O=C(NCc1ccccc1)C1CCN(S(=O)(=O)c2cc(C(=O)N3CCCC3)cs2)CC1 | 760 s
15 | Cc1c(CCC(=O)N2CCC(C(N)=O)CC2)c(=O)oc2cc3oc4c(c3cc12)CCCC4 | 795 s
16 | Cc1ccc(-n2c(-c3ccc(Cl)cc3)cn3c4c(=O)n(C)c(=O)n(C)c4nc23)cc1C | 720 s
17 | COc1ccc(CCC(=O)Nc2nc(-c3ccc(Cl)cc3)cs2)cc1 | 1120 s
18 | CN(Cc1ccsc1)C(=O)Nc1ccc(F)cc1 | 839 s
19 | COC(=O)c1cccc(NC(=O)C2CCN(c3c(C#N)cnc4ccccc34)CC2)c1 | 675 s
20 | O=C(c1ccc(C(F)(F)F)cc1)N1CCN(c2nc(CN3CCCCC3)cs2)CC1 | 684 s
21 | Cc1cnc(-c2cc(N3CCN(C(=O)CCS(C)(=O)=O)CC3)ncc2Cl)c(C)c1 | 728 s
22 | COc1ccc(N2C=C(C(=O)N3CCOCC3)S(=O)(=O)c3ccc(F)cc32)cc1OC | 729 s
23 | Cc1cc(N2CCN(c3ccccn3)CC2)n2nc(C)c(-c3ccc(F)cc3)c2n1 | 664 s

Row | SMILES | RP-LC retention time
24 | COc1ccc(C(=O)Nc2cccn3nc(C4CC4)nc23)cc1 | 839 s
25 | Cc1ccc(CCNC(=O)C2CCN(C(=O)c3sccc3-n3cccc3)CC2)cc1 | 882 s
26 | CCCN1CCN(c2cc(C(=O)O)c3cc(NS(=O)(=O)c4ccc(C)cc4C)ccc3n2)CC1 | 937 s
27 | COc1ccc(N2CCN(C(=O)C3CCCN(S(=O)(=O)c4cn(C(C)C)cn4)C3)CC2)cc1 (stereo not given) | 723 s
28 | CCCc1c(C(=O)O)nnn1Cc1cccc(OC)c1 | 738 s
29 | CC(C)c1noc(-c2cc(=O)n(CC(=O)Nc3ccc(Cl)cc3F)c3ccccc23)n1 | 1100 s
30 | CSc1ccc(-c2noc(Cn3nc(-c4ccccc4Cl)ccc3=O)n2)cc1 | 1030 s
31 | OCCOCCNCc1ccc(-c2ccc(Cl)cc2)o1 | 644 s
32 | Cn1cc(C(CNC(=O)Nc2ccccc2Cl)c2cccnc2)c2ccccc21 (stereo not given) | 726 s
33 | Cc1ccc(C(=O)N2CCCC(COc3ccc(C(=O)NC4CC4)cc3)C2)c(C)c1 (stereo not given) | 856 s
34 | Cc1ccccc1OCc1nc(-c2cccc(-c3ccnn3C)c2)no1 | 1130 s
35 | CCCNc1cc(N2CCC(CCC(=O)O)CC2)ncn1 | 600 s
36 | CCOC(=O)c1nnn(-c2ccccc2OC)c1C(=O)OCC | 917 s
37 | COCc1nc2nccc(-c3ccc(OC)cc3F)n2n1 | 711 s
38 | Cc1cc(N2CCC(NC(=O)Nc3ccc(C)c(F)c3)C2=O)ccc1F (stereo not given) | 900 s
39 | CCc1nnc2nc(N3CCN(C(=O)Cc4cccs4)CC3)cc(C)n12 | 613 s
40 | Cc1nc(C(=O)N2CCCn3ccnc3C2C(C)C)co1 (stereo not given) | 556 s
41 | CC(C)(C)c1noc(-c2ccc(-n3cnc(C(=O)N4CCOCC4)c3)nc2)n1 | 793 s
42 | Cn1c(N2CCCN(C(=O)COc3ccc(Cl)cc3)CC2)cc(=O)n(C)c1=O | 658 s
43 | O=C(Cn1nc(N2CCCC2)c2ccccc2c1=O)Nc1cccc(Cl)c1 | 989 s
44 | O=C(CN1C(=O)CCc2cc(Br)ccc21)NCCN1CCc2ccccc2C1 | 662 s
45 | CCOc1ccc(-c2noc(Cn3c(=O)n(C(C)CC)c(=O)c4ccccc43)n2)cc1 (stereo not given) | 1170 s
46 | CCOC(=O)N1CCC(NS(=O)(=O)CCCOc2ccc(F)cc2)CC1 | 758 s

Row | SMILES | RP-LC retention time
47 | Cc1ccc2nc(-c3ccc(NC(=O)Cn4cnc(C)cc4=O)cc3)sc2c1 | 762 s
48 | Cc1cc(N2CCN(C)CC2)nc2ccc(NC(=S)N3CCN(c4ccc(Cl)cc4)CC3)cc12 | 645 s
49 | Cn1cccc1CN(Cc1cccs1)C(=O)CN1C(=O)CCC1=O | 731 s
50 | O=C(Nc1ccc(Br)cc1F)C1CCN(C(=O)c2cc(-c3ccncc3)n[nH]2)CC1 | 632 s
51 | Cc1cc(C)cc(C(=O)NC2CCN(c3cc(-c4ccc(Cl)cc4)[nH]n3)C2)c1 (stereo not given) | 883 s
52 | CC(C)n1nnc2ccc(-c3noc(-c4ccccc4)n3)cc21 | 1130 s
53 | CCCCC(=O)Nc1ccc2nc(N3CCN(c4ccccc4)CC3)cc(C(=O)O)c2c1 | 672 s
54 | CCC1CN1P(=O)(Oc1ccc(Cl)cc1)N1CC1CC (stereo not given) | 980 s
55 | CS(=O)(=O)N1CCC(C(=O)N2CCCC(c3nnc(-c4cccs4)o3)C2)CC1 (stereo not given) | 642 s
56 | COc1ccc(N2CCN(c3nc(C(=O)NCCN4CCCCC4)cs3)CC2)cc1 | 642 s
57 | CCn1c(C)nnc1SCc1nc(-c2ccc(OC)c(OC)c2)oc1C | 651 s
58 | CC1(C(=O)NCc2ccc(Cl)cc2)Oc2cccnc2NC1=O (stereo not given) | 725 s
59 | COc1ccc(S(=O)(=O)N2CCC(OCCOc3ccccc3)CC2)cc1 | 1070 s
60 | Cc1ccc(-c2ncccc2CNC(=O)c2ccco2)cc1 | 608 s
61 | COc1cn(CC(=O)NCc2ccccc2Cl)c(CO)cc1=O | 564 s
62 | CN(Cc1nc2cc(C(=O)N3CCCC3)ccc2n1C)C(=O)Nc1ccc(Br)cc1F | 659 s
63 | CCN1CCN(c2cc(-c3nc(-c4ccc(Cl)cc4)no3)c3ccccc3n2)CC1 | 911 s
64 | O=C(COc1ccc2c(-c3ccccc3)cc(=O)oc2c1)N1CCC2(O)CCCCC2C1 (stereo not given) | 845 s
65 | O=C(CCCS(=O)(=O)c1ccc(F)cc1)Nc1nc2c(s1)COc1ccccc1-2 | 872 s
66 | O=C(CSc1ncnc2c1nnn2Cc1ccc(F)cc1)N1CCCC1 | 764 s
67 | COc1ccc(S(=O)(=O)N2CCCC(C(=O)NCCc3ccc(OC)c(OC)c3)C2)cc1C (stereo not given) | 870 s
68 | O=S(=O)(c1ccc2c(c1)CCC2)N1CC[C@@H]2COCCN(Cc3cccnc3)[C@@H]2C1 | 687 s
69 | Cc1ccc(-c2nnc(Cc3nc(-c4ccncc4)no3)o2)cc1C | 850 s

Row | SMILES | RP-LC retention time
70 | CCCCc1ccc(NC(=O)CSc2cc(N3CCN(c4ccc(OC)cc4)CC3)ncn2)cc1 | 1310 s
71 | O=C(Nc1ccc(Cl)cc1Cl)c1ccc(Br)cc1F | 1360 s
72 | CC(=O)Nc1ccc(-n2c(-c3ccc(Cl)cc3)cn3c4c(=O)n(C)c(=O)n(C)c4nc23)cc1 | 766 s
73 | CN(C)c1nccnc1OC1CCN(C(=O)c2ccc(Cl)cc2)C1 (stereo not given) | 783 s
74 | CCC(=O)N(C)CCc1noc(-c2ccc(C(=O)NCCN(CC)CC)cc2)n1 | 597 s
75 | CCCNC(=O)NCCc1cn(CC)c2ncccc12 | 612 s
76 | COCCO[C@H]1C(=O)N(C2CCN(S(=O)(=O)c3cccnc3)CC2)[C@H]1c1ccncc1 | 583 s
77 | Cc1nnc(C2CCCN(C(=O)c3ccc(S(=O)(=O)N(C)C)cc3)C2)s1 (stereo not given) | 642 s
78 | COc1cccc(C(=O)N2CCc3nc[nH]c3C2)c1OC | 555 s
79 | COCC(=O)NC1CCC12CCN(C(=O)NC(C)C)CC2 (stereo not given) | 630 s
80 | CC(C)CCC(=O)N1CCN(c2nc3c(s2)CN(C)CC3)CC1 | 597 s
81 | Cc1cc(OCC(=O)Nc2ccnn2Cc2cccs2)ccc1Cl | 913 s
82 | O=C(Cn1ccc2ccccc21)NCc1c(F)cccc1F | 826 s
83 | CCc1nnc2c(=O)n(CC(=O)NCc3ccccc3)c3cccnc3n12 | 688 s
84 | Cc1ccc(NC(=O)N2C[C@@H](F)C[C@H]2C(=O)N2CCc3ccccc3C2)cc1Cl | 895 s
85 | Cc1cnnn1-c1ccc(C(=O)Nc2cc(Cl)ccc2Cl)cc1 | 815 s
86 | O=C1NCCCCCCN(C(=O)c2cnccn2)[C@H]2CCC[C@@H]12 | 632 s
87 | CCOc1ccc(N2C=C(C#N)S(=O)(=O)c3ccccc32)cc1 | 943 s
88 | c1cn(-c2cc(N3CCCC3)ncn2)cn1 | 556 s
89 | Cc1ccccc1NC(=O)c1cn2c(n1)CCCC2 | 586 s
90 | COc1ccc(-c2nc(C3CC(=O)N(c4ccc(Cl)cc4)C3)no2)c(OC)c1 (stereo not given) | 996 s
